The values that follow come from PubChem BioAssay (NCI).

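Values below derive from 48-hour exposures of cells grown in 96-well plates, with endpoints linearly interpolated between the two concentrations bracketing the appropriate inhibition level. The concentration for 50% growth inhibition is given as GI50. TGI: total growth inhibition.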

Some test systems named below: NCI-H460 lung; SN12C renal; T-47D breast; EKVX NSCLC; MDA-N; CCRF-CEM leukemia; TK-10 renal; OVCAR-8 ovarian; 786-0 renal; HCC-2998 colon; SW-620 colon.
Common to all, as to experiment: inhibition of tumour cell growth, NCI panel, 48 h

As for `CCOC(=O)c1c(NS(=O)(=O)c2ccccc2)sc2c1CCCC2`, the TGI in the assay with NCI-H460 lung, in the assay on SN12C renal, in the assay on T-47D breast, in the assay with EKVX NSCLC, in the assay with MDA-N and in the assay with CCRF-CEM leukemia was greater than 100 µM in each case. Besides, the TGI in the assay with TK-10 renal, with OVCAR-8 ovarian and in the assay on 786-0 renal was greater than 100 µM throughout.
For the compound `Cc1ccc(-c2ccc3c(c2)Sc2ccccc2O3)n1C`, the TGI with HCC-2998 colon is 0.625 µM; in the assay on NCI-H460 lung it was greater than 36.5 µM; in the assay with SN12C renal, 7.88 µM; in the assay with T-47D breast it was greater than 100 µM; in the assay with SW-620 colon, greater than 100 µM; in the assay with EKVX NSCLC it was greater than 88.3 µM. Moreover, the TGI in the assay on CCRF-CEM leukemia was 3.95 µM; with TK-10 renal it was greater than 100 µM; with OVCAR-8 ovarian, greater than 100 µM; in the assay on 786-0 renal, greater than 100 µM.
Take `CCCNC(=O)c1cc(OC)c(OC)cc1NC(=O)C12CC3CC(CC(C3)C1)C2`: the TGI is 43.1 µM in the assay on NCI-H460 lung; 29.6 µM in the assay with SN12C renal; 40.4 µM in the assay on T-47D breast; greater than 100 µM in the assay with SW-620 colon; 32.3 µM in the assay on EKVX NSCLC; 30.3 µM in the assay on MDA-N. Moreover, the TGI was greater than 100 µM with CCRF-CEM leukemia, 31.3 µM in the assay with TK-10 renal, 66.6 µM with OVCAR-8 ovarian and 30.6 µM with 786-0 renal.
As to `CCOC(=O)c1c(N2CCN(C)CC2)[nH]c(=O)c(C(c2c(Cl)cccc2Cl)c2c(O)c(C(=O)OCC)c(N3CCN(C)CC3)[nH]c2=O)c1O`, the TGI with HCC-2998 colon worked out at 78.1 µM; in the assay with NCI-H460 lung, 77 µM; in the assay with SN12C renal it was 48 µM; in the assay on T-47D breast it was 45.8 µM; in the assay with SW-620 colon, 68.2 µM; in the assay with EKVX NSCLC it was 34.2 µM. For the same compound, the TGI was greater than 100 µM with CCRF-CEM leukemia, 55.4 µM in the assay on TK-10 renal, 45 µM with OVCAR-8 ovarian and 87 µM with 786-0 renal.
Take `CN(C)CCCn1c(-c2ccc(Br)cc2)csc1=Nc1ccccc1`: the TGI is 18.3 µM with HCC-2998 colon; 39.4 µM in the assay on NCI-H460 lung; 70.9 µM with SN12C renal; 23.8 µM in the assay on EKVX NSCLC; greater than 100 µM in the assay with MDA-N; greater than 100 µM with CCRF-CEM leukemia. Besides, the TGI in the assay on TK-10 renal was 31.7 µM; with OVCAR-8 ovarian, 32.1 µM.
With `COc1cc2c(c(O)c1OC)C(O)C1CCC(=O)N1C2c1ccc2c(c1)OCO2` (configuration not stated), the TGI in the assay with HCC-2998 colon, with NCI-H460 lung, in the assay with SN12C renal, in the assay on T-47D breast, with SW-620 colon and in the assay with EKVX NSCLC was greater than 100 µM each time. The TGI with CCRF-CEM leukemia, with TK-10 renal, in the assay on OVCAR-8 ovarian and in the assay on 786-0 renal was greater than 100 µM each time.
Regarding `O=C(c1ccccc1)c1nn(-c2cccc(Cl)c2)c2nc3nc(-c4ccccc4)cc(=O)n3nc12`, the GI50 was 22.6 µM in the assay on HCC-2998 colon; greater than 25 µM in the assay with NCI-H460 lung; greater than 25 µM in the assay on SN12C renal; greater than 25 µM in the assay on T-47D breast; greater than 25 µM in the assay on SW-620 colon; greater than 25 µM in the assay on EKVX NSCLC. In addition, the GI50 in the assay on CCRF-CEM leukemia, with TK-10 renal and with OVCAR-8 ovarian was greater than 25 µM in each case. The TGI in the assay with HCC-2998 colon, in the assay on NCI-H460 lung, in the assay on SN12C renal, with T-47D breast, in the assay with SW-620 colon and with EKVX NSCLC was greater than 25 µM throughout. Also, the TGI in the assay with CCRF-CEM leukemia, in the assay on TK-10 renal and with OVCAR-8 ovarian was greater than 25 µM throughout.
With `C/C(=C\COP(=O)(O)OP(=O)(O)O)CC/C=C(\C)CNc1c(F)c(F)c(F)c(F)c1F`, the TGI in the assay on HCC-2998 colon, in the assay with NCI-H460 lung, with SN12C renal, in the assay on T-47D breast, in the assay on SW-620 colon and with EKVX NSCLC was greater than 100 µM in each case. Besides, the TGI with CCRF-CEM leukemia was 1.26 µM; in the assay on TK-10 renal, greater than 100 µM; in the assay on OVCAR-8 ovarian, greater than 100 µM; with 786-0 renal, greater than 100 µM.
For the compound `C(/C=C(\Nc1ccccc1)c1ccc2ccccc2c1)=Nc1ccccc1`, the TGI in the assay on NCI-H460 lung came out at 11.9 µM; in the assay on SN12C renal, 5.15 µM; in the assay with T-47D breast, 12.9 µM; with SW-620 colon, 17.3 µM; in the assay on CCRF-CEM leukemia it was 2.85 µM; in the assay with TK-10 renal, 4.47 µM. Further, the TGI was found to be 14.1 µM with OVCAR-8 ovarian and 8.9 µM with 786-0 renal.
Turning to `COc1ccc(/C=C(\C#N)c2ccccn2)cc1OC`, the TGI is greater than 100 µM with HCC-2998 colon; greater than 100 µM in the assay with NCI-H460 lung; greater than 100 µM in the assay with SN12C renal; greater than 100 µM in the assay on SW-620 colon; 56.9 µM in the assay with EKVX NSCLC; greater than 100 µM in the assay on MDA-N. Further, the TGI with CCRF-CEM leukemia, with TK-10 renal, in the assay with OVCAR-8 ovarian and with 786-0 renal was greater than 100 µM in each case.
Take `O=C1CC2(CCN(Cc3ccccc3)CC2)C(=O)N1N1CCCCC1`: the TGI with NCI-H460 lung, in the assay on SN12C renal, in the assay with T-47D breast, in the assay with SW-620 colon, in the assay with MDA-N and with TK-10 renal was greater than 100 µM throughout. The TGI in the assay with OVCAR-8 ovarian and with 786-0 renal was greater than 100 µM in each case.
In the case of `O=C(OC[C@H]1C[C@H]2C(=O)OCCC[C@H]2O1)c1ccccc1`, the TGI in the assay on NCI-H460 lung, in the assay on SN12C renal, with T-47D breast, in the assay with SW-620 colon, with EKVX NSCLC and with MDA-N was greater than 100 µM each time. Besides, the TGI in the assay with CCRF-CEM leukemia, with TK-10 renal, in the assay on OVCAR-8 ovarian and in the assay with 786-0 renal was greater than 100 µM each time.
On to `Cc1cc2nc3c(N)nn(CCCN(C)C)c3nc2cc1C`, for which the TGI in the assay on HCC-2998 colon, with NCI-H460 lung, in the assay on SN12C renal, with T-47D breast, in the assay with SW-620 colon and in the assay with EKVX NSCLC was greater than 100 µM in each case. Moreover, the TGI in the assay with TK-10 renal, in the assay on OVCAR-8 ovarian and in the assay with 786-0 renal was greater than 100 µM each time.
For `COC(=O)c1sc2c(c1C(=O)OC)C(=Nc1ccc(OC)cc1)SC2=Nc1ccc(OC)cc1`, the TGI came out at 3.17 µM in the assay on HCC-2998 colon; 2.79 µM in the assay with NCI-H460 lung; 1.94 µM with SN12C renal; 0.7 µM in the assay on SW-620 colon; 3.02 µM in the assay with EKVX NSCLC; 2.52 µM with MDA-N. The TGI in the assay on CCRF-CEM leukemia worked out at 0.289 µM; with TK-10 renal, 3.01 µM; in the assay with OVCAR-8 ovarian it was 2.32 µM; with 786-0 renal, 1.33 µM.
`O=C1OCc2nc3c(c(-c4ccccc4C(F)(F)F)c21)C(=O)OC3`: the TGI in the assay on HCC-2998 colon, in the assay on NCI-H460 lung, with SN12C renal, in the assay with SW-620 colon, in the assay on EKVX NSCLC and in the assay on CCRF-CEM leukemia was greater than 100 µM each time. Besides, the TGI with TK-10 renal, with OVCAR-8 ovarian and with 786-0 renal was greater than 100 µM throughout.
Regarding `Cc1nc2nnc(CCCCCCCCc3nnc4nc(C)[nH]n34)n2[nH]1`, the TGI in the assay with HCC-2998 colon, with NCI-H460 lung, in the assay with SN12C renal, in the assay with SW-620 colon, in the assay on EKVX NSCLC and in the assay with MDA-N was greater than 100 µM each time. Also, the TGI in the assay on CCRF-CEM leukemia, with TK-10 renal, in the assay with OVCAR-8 ovarian and in the assay on 786-0 renal was greater than 100 µM in each case.
Regarding `CCOc1c2c(cc3c1C(=O)c1c(OC)cccc1C3=O)C=C(OC)CC2`, the TGI in the assay on NCI-H460 lung is greater than 25 µM; in the assay on SN12C renal, greater than 25 µM; in the assay on SW-620 colon, greater than 25 µM; with EKVX NSCLC, greater than 25 µM; in the assay on MDA-N, 19.9 µM; in the assay with CCRF-CEM leukemia, greater than 25 µM. The TGI with TK-10 renal, in the assay on OVCAR-8 ovarian and in the assay with 786-0 renal was greater than 25 µM each time.
On to `O=C(Cn1c(=O)oc2ccccc21)N(c1ccccc1)c1ccccc1`, for which the TGI with NCI-H460 lung, in the assay with SN12C renal, with SW-620 colon, with EKVX NSCLC, with MDA-N and in the assay with CCRF-CEM leukemia was greater than 100 µM throughout. In addition, the TGI in the assay on TK-10 renal, in the assay with OVCAR-8 ovarian and in the assay on 786-0 renal was greater than 100 µM in each case.
`Cc1n[nH]c(=O)c2c3c([nH]c12)-c1ccccc1C3`: the TGI in the assay with NCI-H460 lung, in the assay on SN12C renal, with T-47D breast, with SW-620 colon, with EKVX NSCLC and with MDA-N was greater than 100 µM in each case. Besides, the TGI in the assay on CCRF-CEM leukemia, with TK-10 renal, with OVCAR-8 ovarian and with 786-0 renal was greater than 100 µM in each case.
As to `Clc1ccc(Cc2nc3cc4ccccc4cc3[nH]2)cc1Cl`, the TGI with HCC-2998 colon is 40.4 µM; in the assay with NCI-H460 lung, greater than 100 µM; in the assay with SN12C renal, 52.2 µM; in the assay on T-47D breast, 39.7 µM; in the assay on SW-620 colon it was 41.3 µM; in the assay with EKVX NSCLC, 78.2 µM. For the same compound, the TGI was greater than 100 µM with CCRF-CEM leukemia, 39.8 µM in the assay on TK-10 renal, 49.8 µM in the assay on OVCAR-8 ovarian and greater than 100 µM in the assay with 786-0 renal.
